Source: patent US20080242649A1, “New Combination 665” (priority 2007, published 2008)

How the values were obtained:
Settings in all cases: compound and its salts
[1] = target: T1, recombinant human adrenergic beta 1 receptors (Homo sapiens, UniProt P08588); test: Adrenergic β1 [125I]-Iodocyanopindolol binding
T1 construct: purchased Euroscreen
Method: Membranes containing recombinant human adrenergic beta 1 receptors were obtained from Euroscreen. These were diluted in Assay Buffer (50 mM HEPES, 1 mM EDTA, 120 mM NaCl, 0.1% gelatin, pH 7.4) to provide a final concentration of membranes that gave a clear window between maximum and minimum specific binding.
(§1) Assays were performed in U-bottomed 96-well polypropylene plates. 10 PL [1251]-Iodocyanopindolol (0.036 nM final concentration) and 10 μL of Compound A (10× final concentration) were added to each test well. For each assay plate 8 replicates were obtained for [^125]-Iodocyanopindolol binding in the presence of 10 μL vehicle (10% (v/v) DMSO in Assay Buffer; defining maximum binding) or 10 μL Propranolol (10 μM final concentration; defining non-specific binding (NSB)). Membranes were then added to achieve a final volume of 100 μL. […] Five washes with 250 μL wash buffer (50 mM HEPES, 1 mM EDTA, 120 mM NaCl, pH 7.4) were performed at 4° C. to remove unbound radioactivity. […] The plates were sealed (TopSeal A) and filter-bound radioactivity was measured with a scintillation counter (TopCount, Packard BioScience) using a 3-minute counting protocol.
(§2) Total specific binding (B0) was determined by subtracting the mean NSB from the mean maximum binding. […]

[2] = target: T2, recombinant human Dopamine Subtype D2s receptors (Homo sapiens, UniProt P14416); test: Dopamine D2 [3H]-spiperone binding
T2 construct: purchased Perkin Elmer
Method: Membranes containing recombinant human Dopamine Subtype D2s receptors were obtained from Perkin Elmer. These were diluted in Assay Buffer (50 mM HEPES, 1 mM EDTA, 120 mM NaCl, 0.1% gelatin, pH 7.4) to provide a final concentration of membranes that gave a clear window between maximum and minimum specific binding.
Assays were performed in U-bottomed 96-well polypropylene plates. 30 PL [^3H]-spiperone (0.16 nM final concentration) and 30 μL of Compound A (10× final concentration) were added to each test well. For each assay plate 8 replicates were obtained for [^3H]-spiperone binding in the presence of 30 PL vehicle (10% (v/v) DMSO in Assay Buffer; defining maximum binding) or 30 μL Haloperidol (10 PM final concentration; defining non-specific binding (NSB)). Membranes were then added to achieve a final volume of 300 μL. […] Five washes with 250 μL wash buffer (50 mM HEPES, 1 mM EDTA, 120 mM NaCl, pH 7.4) were performed at 4° C. to remove unbound radioactivity. […] The plates were sealed (TopSeal A) and filter-bound radioactivity was measured with a scintillation counter (TopCount, Packard BioScience) using a 3-minute counting protocol.
as §2

[3] = target: T3, recombinant human α1D receptor (Homo sapiens, UniProt P25100); test: Adrenergic α1D [3H]-prazosin binding, HEK293 membranes
T3 construct: expressed in transfected cells; host or cells: HEK293 cells (membranes)
T3 sequence (P25100 1-572): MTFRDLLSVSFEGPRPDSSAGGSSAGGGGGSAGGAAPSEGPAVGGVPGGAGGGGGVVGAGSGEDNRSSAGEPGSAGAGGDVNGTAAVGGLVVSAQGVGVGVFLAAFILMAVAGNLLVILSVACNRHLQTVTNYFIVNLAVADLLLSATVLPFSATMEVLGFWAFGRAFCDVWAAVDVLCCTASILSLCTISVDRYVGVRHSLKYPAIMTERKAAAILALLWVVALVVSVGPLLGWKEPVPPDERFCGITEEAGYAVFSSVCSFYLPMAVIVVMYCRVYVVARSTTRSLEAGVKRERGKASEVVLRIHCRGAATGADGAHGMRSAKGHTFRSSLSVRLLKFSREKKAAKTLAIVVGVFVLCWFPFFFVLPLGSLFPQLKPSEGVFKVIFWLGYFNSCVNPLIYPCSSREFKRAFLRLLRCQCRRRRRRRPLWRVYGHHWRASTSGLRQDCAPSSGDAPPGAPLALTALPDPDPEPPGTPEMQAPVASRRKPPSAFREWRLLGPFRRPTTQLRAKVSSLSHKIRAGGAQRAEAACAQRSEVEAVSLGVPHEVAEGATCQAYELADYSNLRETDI
Method: Membranes were prepared from human embryonic kidney 293 (HEK293) cells expressing recombinant human α1D receptor. These were diluted in Assay Buffer (50 mM HEPES, 1 mM EDTA, 0.1% gelatin, pH 7.4) to provide a final concentration of membranes that gave a clear window between maximum and minimum specific binding.
as §1, with “μL [^3H]-prazosin (0.3” for “PL [1251]-Iodocyanopindolol (0.036”, “[^3H]-prazosin” for “[^125]-Iodocyanopindolol”, “BMY7378” for “Propranolol”, “EDTA,” for “EDTA, 120 mM NaCl,”
as §2

T2 sequence (P14416 1-414 isoform P14416-2): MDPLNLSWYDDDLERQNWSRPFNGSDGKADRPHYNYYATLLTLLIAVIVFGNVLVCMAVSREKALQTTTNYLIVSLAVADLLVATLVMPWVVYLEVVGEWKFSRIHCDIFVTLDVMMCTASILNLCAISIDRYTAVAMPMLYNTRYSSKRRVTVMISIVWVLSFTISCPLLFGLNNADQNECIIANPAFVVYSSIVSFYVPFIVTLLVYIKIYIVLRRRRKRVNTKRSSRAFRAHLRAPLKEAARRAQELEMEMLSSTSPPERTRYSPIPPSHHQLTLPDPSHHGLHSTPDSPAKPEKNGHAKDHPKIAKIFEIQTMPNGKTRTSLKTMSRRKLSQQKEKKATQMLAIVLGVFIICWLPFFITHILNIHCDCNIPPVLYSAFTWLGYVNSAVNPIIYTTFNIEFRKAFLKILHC
T1 sequence (P08588 whole entry): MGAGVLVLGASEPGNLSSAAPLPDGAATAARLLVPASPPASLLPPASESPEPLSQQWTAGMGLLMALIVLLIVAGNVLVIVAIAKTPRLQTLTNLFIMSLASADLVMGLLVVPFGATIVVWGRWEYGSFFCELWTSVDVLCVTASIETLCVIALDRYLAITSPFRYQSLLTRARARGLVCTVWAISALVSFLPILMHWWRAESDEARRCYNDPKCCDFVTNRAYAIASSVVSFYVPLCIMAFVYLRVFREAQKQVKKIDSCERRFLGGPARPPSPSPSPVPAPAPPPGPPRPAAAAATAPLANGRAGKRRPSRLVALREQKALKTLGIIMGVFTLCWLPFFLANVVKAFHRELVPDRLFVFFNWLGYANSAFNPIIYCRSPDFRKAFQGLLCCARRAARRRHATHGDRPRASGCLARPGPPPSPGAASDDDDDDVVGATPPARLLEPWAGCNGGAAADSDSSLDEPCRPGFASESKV

CCN(CC)CCN(CCNCCc1ccc(O)c2[nH]c(=O)sc12)C(=O)CCOCCc1cccc2ccccc12 [N-[2-(Diethylamino)ethyl]-N-(2-{[2-(4-hydroxy-2-oxo-2,3-dihydro-1,3-benzothiazol-7-yl)ethyl]amino}ethyl)-3-[2-(1-naphthyl)ethoxy]propanamide]
≥ 10 fold: selectivity of β2 adrenoceptor agonism over adrenergic β1 [1] | selectivity of β2 adrenoceptor agonism over dopamine D2 [2] | selectivity of β2 adrenoceptor agonism over adrenergic α1D [3]
